Consider one molecule from patent US9518038B2, “Condensation product of theanine derivative and carboxylic acid coumarin derivative, its intermediate, preparation method and use thereof” (SHANDONG YINGDONG YINGHAO BIOTECHNOLOGY, INC., priority 2012, dated 2016).

The target of assay [1] is T1, EZH2 (Mus musculus, UniProt Q61188).
T1 construct: the EZH2 enzyme was replaced with tumor protein extracts in each group; from tissue; host or cells: Lewis lung cancer tumours from treated mice
Nature of the assay: EZH2 enzyme activity in protein extracts of LLC tumors of treated mice (EZH2 Assay Kit). The following applies: mouse; LLC tumor grown in vivo; tumors excised 6 h after medication; SAHA 25 mg/kg; read-out: decrease of EZH2 enzyme activity/inhibition rate.

Assay [2] concerns the target T2, EZH2 (Homo sapiens, UniProt Q15910).
T2 construct: the EZH2 enzyme was replaced with tumor protein extracts in each group; from tissue; host or cells: human tumour xenografts excised from treated nude mice
Nature of the assay: EZH2 enzyme activity in protein extracts of human tumor xenografts of treated mice (EZH2 Assay Kit). It is filed as in vivo. The following applies: tumors excised 6 h after medication, SAHA 25 mg/kg; for inhibition: read-out: decrease of EZH2 enzyme activity/inhibition rate.

Values joined by “and” are separate entries in the source; they are usually repeats but may differ in a detail not shown here. Equal entries are not always repeated. Where two headings read alike, the source gives them in different places.

T2 sequence (Q15910 whole entry): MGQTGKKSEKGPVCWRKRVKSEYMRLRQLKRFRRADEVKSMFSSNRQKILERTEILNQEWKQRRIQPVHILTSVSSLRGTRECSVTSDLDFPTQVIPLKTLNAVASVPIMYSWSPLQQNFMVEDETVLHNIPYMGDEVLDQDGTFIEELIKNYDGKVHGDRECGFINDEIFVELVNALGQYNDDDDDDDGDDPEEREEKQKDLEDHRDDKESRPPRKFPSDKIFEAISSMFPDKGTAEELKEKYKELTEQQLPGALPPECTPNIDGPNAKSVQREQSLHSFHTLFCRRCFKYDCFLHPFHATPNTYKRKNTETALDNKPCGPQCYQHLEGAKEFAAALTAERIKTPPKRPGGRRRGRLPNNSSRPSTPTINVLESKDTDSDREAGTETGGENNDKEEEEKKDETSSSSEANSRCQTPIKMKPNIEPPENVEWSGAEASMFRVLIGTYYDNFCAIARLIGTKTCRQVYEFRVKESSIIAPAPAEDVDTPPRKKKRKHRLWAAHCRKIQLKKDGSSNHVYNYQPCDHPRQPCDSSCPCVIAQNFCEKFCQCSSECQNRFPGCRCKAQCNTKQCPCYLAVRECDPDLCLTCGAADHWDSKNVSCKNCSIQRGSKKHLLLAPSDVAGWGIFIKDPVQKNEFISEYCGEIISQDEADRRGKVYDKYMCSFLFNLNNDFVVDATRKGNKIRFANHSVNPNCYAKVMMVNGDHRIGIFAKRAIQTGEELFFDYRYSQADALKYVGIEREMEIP
T2 sequence (O75530 whole entry partner): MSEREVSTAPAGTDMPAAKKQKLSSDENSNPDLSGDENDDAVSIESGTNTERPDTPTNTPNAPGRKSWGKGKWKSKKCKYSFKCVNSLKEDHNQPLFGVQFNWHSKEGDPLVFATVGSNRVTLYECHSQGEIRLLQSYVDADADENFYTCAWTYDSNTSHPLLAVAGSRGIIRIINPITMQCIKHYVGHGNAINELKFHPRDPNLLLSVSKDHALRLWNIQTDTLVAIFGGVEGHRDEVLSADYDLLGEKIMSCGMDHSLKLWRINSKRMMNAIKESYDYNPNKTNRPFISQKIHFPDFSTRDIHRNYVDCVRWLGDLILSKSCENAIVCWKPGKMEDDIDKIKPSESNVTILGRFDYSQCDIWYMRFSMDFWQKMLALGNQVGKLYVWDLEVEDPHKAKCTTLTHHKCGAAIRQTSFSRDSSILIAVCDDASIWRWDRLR
T2 sequence (Q15022 whole entry partner): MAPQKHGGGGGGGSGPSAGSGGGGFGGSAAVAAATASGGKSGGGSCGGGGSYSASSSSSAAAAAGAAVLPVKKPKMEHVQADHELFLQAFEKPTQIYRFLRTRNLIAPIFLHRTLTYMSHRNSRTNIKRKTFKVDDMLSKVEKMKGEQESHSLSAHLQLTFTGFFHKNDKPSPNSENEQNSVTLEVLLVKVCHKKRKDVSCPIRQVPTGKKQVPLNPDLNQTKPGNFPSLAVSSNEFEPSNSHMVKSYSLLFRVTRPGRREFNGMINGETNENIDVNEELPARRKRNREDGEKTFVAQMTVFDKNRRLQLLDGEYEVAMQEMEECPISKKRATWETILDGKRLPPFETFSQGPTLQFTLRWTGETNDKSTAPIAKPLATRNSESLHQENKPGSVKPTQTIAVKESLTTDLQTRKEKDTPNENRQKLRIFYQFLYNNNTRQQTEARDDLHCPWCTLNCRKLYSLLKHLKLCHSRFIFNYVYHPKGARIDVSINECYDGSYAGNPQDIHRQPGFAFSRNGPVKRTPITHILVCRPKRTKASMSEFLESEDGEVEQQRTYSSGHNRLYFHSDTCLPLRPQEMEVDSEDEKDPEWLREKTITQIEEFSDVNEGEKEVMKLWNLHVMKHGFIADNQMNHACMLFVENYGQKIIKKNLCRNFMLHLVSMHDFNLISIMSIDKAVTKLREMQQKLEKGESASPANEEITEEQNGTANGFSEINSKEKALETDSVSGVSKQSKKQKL
T1 sequence (Q61188 whole entry): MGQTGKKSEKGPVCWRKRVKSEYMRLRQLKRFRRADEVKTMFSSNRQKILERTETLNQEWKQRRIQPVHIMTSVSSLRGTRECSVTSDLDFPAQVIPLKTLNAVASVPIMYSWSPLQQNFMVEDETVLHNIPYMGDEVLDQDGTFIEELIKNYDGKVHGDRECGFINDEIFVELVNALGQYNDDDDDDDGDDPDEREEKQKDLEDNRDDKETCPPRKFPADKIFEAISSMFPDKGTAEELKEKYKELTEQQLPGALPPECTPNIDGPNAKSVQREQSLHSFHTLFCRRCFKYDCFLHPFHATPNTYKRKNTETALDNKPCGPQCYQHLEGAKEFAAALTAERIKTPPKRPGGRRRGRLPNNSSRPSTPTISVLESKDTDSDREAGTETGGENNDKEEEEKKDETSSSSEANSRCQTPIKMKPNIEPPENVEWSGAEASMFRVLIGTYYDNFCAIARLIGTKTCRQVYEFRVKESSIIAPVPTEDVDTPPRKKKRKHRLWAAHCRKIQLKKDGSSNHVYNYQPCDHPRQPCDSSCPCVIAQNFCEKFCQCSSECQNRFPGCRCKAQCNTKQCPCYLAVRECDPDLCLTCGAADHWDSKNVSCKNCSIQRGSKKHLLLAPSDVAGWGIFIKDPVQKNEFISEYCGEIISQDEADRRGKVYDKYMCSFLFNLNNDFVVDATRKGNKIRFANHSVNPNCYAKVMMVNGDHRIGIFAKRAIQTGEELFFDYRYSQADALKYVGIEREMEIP
T1 sequence (Q921E6 whole entry partner): as the sequence (O75530 whole entry partner) above
T1 sequence (Q80U70 whole entry partner): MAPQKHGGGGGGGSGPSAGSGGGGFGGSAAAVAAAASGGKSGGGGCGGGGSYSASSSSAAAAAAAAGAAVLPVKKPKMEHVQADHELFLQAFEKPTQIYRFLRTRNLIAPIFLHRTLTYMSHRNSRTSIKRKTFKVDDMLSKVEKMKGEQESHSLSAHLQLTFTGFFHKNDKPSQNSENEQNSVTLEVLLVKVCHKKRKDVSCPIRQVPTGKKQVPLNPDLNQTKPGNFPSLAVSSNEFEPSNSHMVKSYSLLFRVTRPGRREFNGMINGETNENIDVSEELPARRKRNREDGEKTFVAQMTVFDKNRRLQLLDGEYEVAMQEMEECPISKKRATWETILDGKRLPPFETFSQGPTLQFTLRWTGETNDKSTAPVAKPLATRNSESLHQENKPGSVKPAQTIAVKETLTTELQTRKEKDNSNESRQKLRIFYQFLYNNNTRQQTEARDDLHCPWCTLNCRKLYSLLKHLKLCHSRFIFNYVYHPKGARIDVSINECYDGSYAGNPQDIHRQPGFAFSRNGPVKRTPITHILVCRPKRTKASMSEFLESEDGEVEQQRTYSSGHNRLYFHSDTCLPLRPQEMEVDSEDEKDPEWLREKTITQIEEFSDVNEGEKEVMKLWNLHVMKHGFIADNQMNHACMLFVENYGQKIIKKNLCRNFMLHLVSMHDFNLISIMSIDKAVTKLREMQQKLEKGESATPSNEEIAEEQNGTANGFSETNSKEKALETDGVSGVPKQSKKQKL

Turning to `O=C(CCCCCCC(=O)Nc1ccccc1)NO` [SAHA, suberoylanilide hydroxamic acid, reference compound], the inhibition on EZH2 [1] turned out to be 50%; on EZH2 [2] (A549, A549 tumor grown in vivo), 52%; on EZH2 [2] (MCF7, MCF7 tumor grown in vivo), 52%; on EZH2 [2] (MDA-MB-231, MDA-MB231 tumor grown in vivo), 54%; at EZH2 [2] (SMMC-7721, SMMC7721 tumor grown in vivo), 48%. Moreover, the “decrease of EZH2 enzyme activity/inhibition rate” value on EZH2 [2] (A549 tumor grown in vivo) is 53%*(A549)-; on EZH2 [2] (MCF7 tumor grown in vivo), 53%*(MCF7); at EZH2 [2] (MDA-MB231 tumor grown in vivo), 55%*(MDA-MB231); at EZH2 [2] (SMMC7721 tumor grown in vivo), 49%*(SMMC-7721); and 49%*(SMMC7721);.
